Literature values as cited in US20150328159A1, “Composition” (Innovata Limited, priority 2009, published 2015).

hyaluronic acid
solubility in organic solvents: insoluble
